US20250034153A1, “TRIAZOLOPYRIMIDINES AS A2A / A2B INHIBITORS” (Incyte Corporation, priority 2019, published 2025)

Key:
[1] = target: human adenosine A2B receptor (Homo sapiens (Human), UniProt P29275); experiment: Adenosine A2B receptor cyclic AMP GS assay (Example B); assay type: cell-based; settings: HEK-293 cells expressing human A2B, agonist NECA 12 nM, cAMP accumulation (FRET); read-out: A2B_cAMP_EC50
Procedure: Example B. Adenosine A2B Receptor Cyclic AMP GS Assay
Stably transfected HEK-293 cells expressing the human adenosine A2B receptor (Perkin Elmer) were maintained in MEM culture medium with 10% FBS and 100 μg/ml Geneticin (Life Technologies). 18 to 24 hours prior to assay, geneticin was removed from culture. The cisbio cAMP-GS Dynamic kit utilizing the FRET (Fluorescence Resonance Energy Transfer) technology was used to measure cAMP accumulation in the cells. Compounds of the present disclosure at an appropriate concentration were mixed with 10000 cells/well in white 96 well half area plates (Perkin Elmer) for 30 min at RT gently shaking. Agonist, NECA (R&D Technologies) at 12 nM was added to each well for 60 min at RT gently shaking. Detection reagents, d2-labeled cAMP (acceptor) and anti-cAMP cryptate (donor) were added to each well for 60 min at RT gently shaking. Plates were read on Pherastar (BMG Labtech), fluorescence ratio 665/620 was calculated and EC50 determination was performed by fitting the curve of percent of control versus the log of the compound concentration using GraphPad Prism.

Adenosine A2A = Adenosine A2A (Homo sapiens (Human), UniProt P29274); experiment: A2A Tag-lite HTRF assay (Example C); settings: Tag-lite Adenosine A2A labeled cells, Red antagonist fluorescent ligand 12.5 nM, one-site competitive binding; read-out: A2A_Ki
Chain of Adenosine A2A (P29274 whole entry): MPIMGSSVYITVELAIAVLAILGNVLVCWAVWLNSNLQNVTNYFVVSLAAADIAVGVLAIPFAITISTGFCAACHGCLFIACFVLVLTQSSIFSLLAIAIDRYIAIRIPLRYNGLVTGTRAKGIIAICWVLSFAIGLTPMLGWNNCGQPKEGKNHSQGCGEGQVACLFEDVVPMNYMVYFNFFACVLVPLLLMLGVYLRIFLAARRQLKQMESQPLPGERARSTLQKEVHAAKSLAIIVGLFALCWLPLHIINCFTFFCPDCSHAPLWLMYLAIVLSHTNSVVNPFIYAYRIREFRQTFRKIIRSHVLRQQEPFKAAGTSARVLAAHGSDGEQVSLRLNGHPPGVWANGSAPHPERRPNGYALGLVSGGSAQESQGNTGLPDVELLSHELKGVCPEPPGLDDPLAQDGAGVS
Procedure: Example C. A2A Tag-Lite® HTRF Assay
Assays were conducted in black low volume 384-well polystyrene plates (Greiner 784076-25) in a final volume of 10 μL. Test compounds were first serially diluted in DMSO and 100 nl added to the plate wells before the addition of other reaction components. The final concentration of DMSO was 1%. Tag-lite® Adenosine A2A labeled cells (CisBio C1TT1A2A) were diluted 1:5 into Tag-lite buffer (CisBio LABMED) and spun 1200 g for 5 mins. The pellet was resuspended at a volume 10.4× the initial cell suspension volume in Tag-lite buffer, and Adenosine A2A Receptor Red antagonist fluorescent ligand (CisBio L0058RED) added at 12.5 nM final concentration. 10 ul of the cell and ligand mix was added to the assay wells and incubated at room temperature for 45 minutes before reading on a PHERAstar FS plate reader (BMG Labtech) with HTRF 337/620/665 optical module. Percent binding of the fluorescent ligand was calculated; where 100 nM of A2A antagonist control ZM 241385 (Tocris 1036) displaces the ligand 100% and 1% DMSO has 0% displacement. The % binding data versus the log of the inhibitor concentration was fitted to a one-site competitive binding model (GraphPad Prism version 7.02) where the ligand constant=12.5 nM and the ligand Kd=1.85 nM.

Chain of human adenosine A2B receptor (P29275 whole entry): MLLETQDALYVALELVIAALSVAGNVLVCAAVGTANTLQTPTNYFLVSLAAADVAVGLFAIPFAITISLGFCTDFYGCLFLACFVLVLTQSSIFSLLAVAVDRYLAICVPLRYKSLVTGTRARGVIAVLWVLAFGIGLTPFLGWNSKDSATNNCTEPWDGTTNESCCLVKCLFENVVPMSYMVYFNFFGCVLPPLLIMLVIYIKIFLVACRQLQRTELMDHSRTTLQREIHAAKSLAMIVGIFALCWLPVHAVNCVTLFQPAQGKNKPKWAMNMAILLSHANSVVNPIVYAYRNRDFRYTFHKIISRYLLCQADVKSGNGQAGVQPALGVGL

SMILES | EC50 [1] [µM] | Ki (Adenosine A2A) [µM]
Cc1cccnc1CNc1nc2c(-c3ccc(=O)n(C)c3)c(-c3cccc(C#N)c3F)nc(N)n2n1 [Example 23, 3-(5-amino-8-(1-methyl-6-oxo-1,6-dihydropyridin-3-yl)-2-(((3-methylpyridin-2-yl)methyl)amino)-[1,2,4]triazolo[1,5-c]pyrimidin-7-yl)-2-fluorobenzonitrile] | 0.01 to 0.1 | ≤ 0.01
CCn1cc(-c2c(-c3cccc(C#N)c3F)nc(N)n3nc(NCc4ncccc4C)nc23)ccc1=O [Example 24, 3-(5-amino-8-(1-ethyl-6-oxo-1,6-dihydropyridin-3-yl)-2-(((3-methylpyridin-2-yl)methyl)amino)-[1,2,4]triazolo[1,5-c]pyrimidin-7-yl)-2-fluorobenzonitrile] | 0.01 to 0.1 | ≤ 0.01
Cn1nc(-c2c(-c3cccc(C#N)c3)nc(N)n3nc(Cc4ccccn4)nc23)ccc1=O [Example 27, 3-(5-amino-8-(1-methyl-6-oxo-1,6-dihydropyridazin-3-yl)-2-(pyridin-2-ylmethyl)-[1,2,4]triazolo[1,5-c]pyrimidin-7-yl)benzonitrile] | ≤ 0.01 | ≤ 0.01
N#Cc1cccc(-c2nc(N)n3nc(OCc4ncccc4F)nc3c2-c2ccncn2)c1 [Example 28, 3-(5-amino-2-((3-fluoropyridin-2-yl)methoxy)-8-(pyrimidin-4-yl)-[1,2,4]triazolo[1,5-c]pyrimidin-7-yl)benzonitrile] | ≤ 0.01 | ≤ 0.01
Cc1cc(-c2c(-c3cccc(C#N)c3)nc(N)n3nc(OCc4ncccc4F)nc23)cc(C)n1 [Example 32, 3-(5-amino-8-(2,6-dimethylpyridin-4-yl)-2-((3-fluoropyridin-2-yl)methoxy)-[1,2,4]triazolo[1,5-c]pyrimidin-7-yl)benzonitrile] | 0.01 to 0.1 | ≤ 0.01
COc1cc(-c2c(-c3cccc(C#N)c3)nc(N)n3nc(OCc4ncccc4F)nc23)cc(C)n1 [Example 33, 3-(5-amino-2-((3-fluoropyridin-2-yl)methoxy)-8-(2-methoxy-6-methylpyridin-4-yl)-[1,2,4]triazolo[1,5-c]pyrimidin-7-yl)benzonitrile] | ≤ 0.01 | ≤ 0.01
N#Cc1cccc(-c2nc(N)n3nc(Nc4ccccn4)nc3c2-c2ccncn2)c1 [Example 34, 3-(5-amino-2-(pyridin-2-ylamino)-8-(pyrimidin-4-yl)-[1,2,4]triazolo[1,5-c]pyrimidin-7-yl)benzonitrile] | ≤ 0.01 | ≤ 0.01
Cc1cccc(Nc2nc3c(-c4ccncn4)c(-c4cccc(C#N)c4)nc(N)n3n2)n1 [Example 40, 3-(5-amino-2-((6-methylpyridin-2-yl)amino)-8-(pyrimidin-4-yl)-[1,2,4]triazolo[1,5-c]pyrimidin-7-yl)benzonitrile] | ≤ 0.01 | ≤ 0.01
N#Cc1cccc(-c2nc(N)n3nc(COc4ccccn4)nc3c2-c2ccncn2)c1 [Example 41, 3-(5-amino-2-((pyridin-2-yloxy)methyl)-8-(pyrimidin-4-yl)-[1,2,4]triazolo[1,5-c]pyrimidin-7-yl)benzonitrile] | ≤ 0.01 | ≤ 0.01
N#Cc1cccc(-c2nc(N)n3nc(COc4ncccc4C#N)nc3c2-c2ccncn2)c1 [Example 42, 2-((5-amino-7-(3-cyanophenyl)-8-(pyrimidin-4-yl)-[1,2,4]triazolo[1,5-c]pyrimidin-2-yl)methoxy)nicotinonitrile] | ≤ 0.01 | ≤ 0.01
Cc1cc(-c2c(-c3cccc(C#N)c3)nc(N)n3nc(COc4ncccc4C#N)nc23)cc(C)n1 [Example 46, 2-((5-amino-7-(3-cyanophenyl)-8-(2,6-dimethylpyridin-4-yl)-[1,2,4]triazolo[1,5-c]pyrimidin-2-yl)methoxy)nicotinonitrile] | 0.1 to 1 | ≤ 0.01
COc1cc(-c2c(-c3cccc(C#N)c3)nc(N)n3nc(COc4ncccc4C#N)nc23)cc(C)n1 [Example 47, 2-((5-amino-7-(3-cyanophenyl)-8-(2-methoxy-6-methylpyridin-4-yl)-[1,2,4]triazolo[1,5-c]pyrimidin-2-yl)methoxy)nicotinonitrile] | 0.01 to 0.1 | ≤ 0.01
N#Cc1cccc(-c2nc(N)n3nc(Cn4nnc(-c5ccccn5)n4)nc3c2-c2ccncn2)c1 [Example 50, 3-(5-amino-2-((5-(pyridin-2-yl)-2H-tetrazol-2-yl)methyl)-8-(pyrimidin-4-yl)-[1,2,4]triazolo[1,5-c]pyrimidin-7-yl)benzonitrile] | ≤ 0.01 | ≤ 0.01
N#Cc1cccc(-c2nc(N)n3nc(Cn4nnnc4-c4ncccn4)nc3c2-c2ccncn2)c1 [Example 51, 3-(5-amino-2-((5-(pyrimidin-2-yl)-1H-tetrazol-1-yl)methyl)-8-(pyrimidin-4-yl)-[1,2,4]triazolo[1,5-c]pyrimidin-7-yl)benzonitrile] | ≤ 0.01 | ≤ 0.01

Other lines, results leading:

EC50 [1] [µM] | Ki (Adenosine A2A) [µM] | SMILES
≤ 0.01 | ≤ 0.01 | Cc1cccnc1CNc1nc2c(-c3ccc(=O)n(C)n3)c(-c3cccc(C#N)c3F)nc(N)n2n1 [Example 25, 3-(5-amino-8-(1-methyl-6-oxo-1,6-dihydropyridazin-3-yl)-2-(((3-methylpyridin-2-yl)methyl)amino)-[1,2,4]triazolo[1,5-c]pyrimidin-7-yl)-2-fluorobenzonitrile]
0.01 to 0.1 | ≤ 0.01 | COc1cc(-c2c(-c3cccc(C#N)c3F)nc(N)n3nc(NCc4ncccc4C)nc23)cc(C)n1 [Example 26, 3-(5-amino-8-(2-methoxy-6-methylpyridin-4-yl)-2-(((3-methylpyridin-2-yl)methyl)amino)-[1,2,4]triazolo[1,5-c]pyrimidin-7-yl)-2-fluorobenzonitrile]
≤ 0.01 | ≤ 0.01 | Cn1cc(-c2c(-c3cccc(C#N)c3)nc(N)n3nc(OCc4ncccc4F)nc23)ccc1=O [Example 29, 3-(5-amino-2-((3-fluoropyridin-2-yl)methoxy)-8-(1-methyl-6-oxo-1,6-dihydropyridin-3-yl)-[1,2,4]triazolo[1,5-c]pyrimidin-7-yl)benzonitrile]
≤ 0.01 | ≤ 0.01 | Cn1nc(-c2c(-c3cccc(C#N)c3)nc(N)n3nc(OCc4ncccc4F)nc23)ccc1=O [Example 30, 3-(5-amino-2-((3-fluoropyridin-2-yl)methoxy)-8-(1-methyl-6-oxo-1,6-dihydropyridazin-3-yl)-[1,2,4]triazolo[1,5-c]pyrimidin-7-yl)benzonitrile]
≤ 0.01 | ≤ 0.01 | Cn1cc(-c2c(-c3cccc(C#N)c3)nc(N)n3nc(COc4ncccc4C#N)nc23)ccc1=O [Example 43, 2-((5-amino-7-(3-cyanophenyl)-8-(1-methyl-6-oxo-1,6-dihydropyridin-3-yl)-[1,2,4]triazolo[1,5-c]pyrimidin-2-yl)methoxy)nicotinonitrile]
0.01 to 0.1 | ≤ 0.01 | Cn1nc(-c2c(-c3cccc(C#N)c3)nc(N)n3nc(COc4ncccc4C#N)nc23)ccc1=O [Example 44, 2-((5-amino-7-(3-cyanophenyl)-8-(1-methyl-6-oxo-1,6-dihydropyridazin-3-yl)-[1,2,4]triazolo[1,5-c]pyrimidin-2-yl)methoxy)nicotinonitrile]
≤ 0.01 | ≤ 0.01 | N#Cc1cccc(-c2nc(N)n3nc(Cn4nnnc4-c4ccncn4)nc3c2-c2ccncn2)c1 [Example 52, 3-(5-amino-8-(pyrimidin-4-yl)-2-((5-(pyrimidin-4-yl)-1H-tetrazol-1-yl)methyl)-[1,2,4]triazolo[1,5-c]pyrimidin-7-yl)benzonitrile]
